Data taken from ChEMBL document CHEMBL1201862, “PubChem BioAssay data set” (2004).
Active and inactive are the calls of the source.

Columns and labels:
[1] = molecular target: T1, Apoptotic protease-activating factor 1 (Homo sapiens, UniProt O14727); type: functional
T1 sequence (O14727 whole entry): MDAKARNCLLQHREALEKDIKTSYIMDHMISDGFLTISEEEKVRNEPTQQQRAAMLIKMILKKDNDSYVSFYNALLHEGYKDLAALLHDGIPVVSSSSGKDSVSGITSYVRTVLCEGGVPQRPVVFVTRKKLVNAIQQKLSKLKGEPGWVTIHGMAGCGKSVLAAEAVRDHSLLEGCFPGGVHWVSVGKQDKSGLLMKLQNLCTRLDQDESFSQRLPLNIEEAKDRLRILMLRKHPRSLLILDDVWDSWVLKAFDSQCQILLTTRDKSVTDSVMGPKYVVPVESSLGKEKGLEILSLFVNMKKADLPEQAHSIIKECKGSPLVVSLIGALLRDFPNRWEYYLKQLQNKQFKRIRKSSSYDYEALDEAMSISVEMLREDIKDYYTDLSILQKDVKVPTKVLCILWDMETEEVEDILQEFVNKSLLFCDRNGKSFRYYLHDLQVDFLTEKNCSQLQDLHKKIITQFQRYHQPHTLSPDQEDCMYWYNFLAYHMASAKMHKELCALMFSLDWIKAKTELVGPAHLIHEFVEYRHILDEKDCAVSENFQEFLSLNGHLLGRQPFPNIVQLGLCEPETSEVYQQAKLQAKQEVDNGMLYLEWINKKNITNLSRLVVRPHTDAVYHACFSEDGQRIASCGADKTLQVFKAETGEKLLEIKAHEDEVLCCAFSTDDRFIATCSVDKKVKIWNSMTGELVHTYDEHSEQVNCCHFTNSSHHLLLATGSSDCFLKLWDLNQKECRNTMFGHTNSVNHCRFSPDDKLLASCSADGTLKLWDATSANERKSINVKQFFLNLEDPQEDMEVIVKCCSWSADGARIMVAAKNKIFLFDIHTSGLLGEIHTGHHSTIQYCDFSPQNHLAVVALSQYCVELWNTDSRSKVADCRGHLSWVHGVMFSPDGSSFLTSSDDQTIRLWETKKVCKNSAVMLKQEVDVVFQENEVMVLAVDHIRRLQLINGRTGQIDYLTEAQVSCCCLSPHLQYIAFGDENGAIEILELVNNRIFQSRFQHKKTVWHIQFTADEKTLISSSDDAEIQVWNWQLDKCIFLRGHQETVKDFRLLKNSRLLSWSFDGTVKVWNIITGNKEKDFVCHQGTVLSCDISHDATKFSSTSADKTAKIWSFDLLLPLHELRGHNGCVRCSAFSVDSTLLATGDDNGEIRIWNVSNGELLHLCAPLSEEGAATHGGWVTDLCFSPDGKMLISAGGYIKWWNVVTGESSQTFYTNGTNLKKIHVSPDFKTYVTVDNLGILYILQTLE

[2] = molecular target: T2, Protein kinase C zeta type (Homo sapiens, UniProt Q05513); type: functional;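 further: measured as one member of a broad kinase profiling panel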
T2 sequence (Q05513 whole entry): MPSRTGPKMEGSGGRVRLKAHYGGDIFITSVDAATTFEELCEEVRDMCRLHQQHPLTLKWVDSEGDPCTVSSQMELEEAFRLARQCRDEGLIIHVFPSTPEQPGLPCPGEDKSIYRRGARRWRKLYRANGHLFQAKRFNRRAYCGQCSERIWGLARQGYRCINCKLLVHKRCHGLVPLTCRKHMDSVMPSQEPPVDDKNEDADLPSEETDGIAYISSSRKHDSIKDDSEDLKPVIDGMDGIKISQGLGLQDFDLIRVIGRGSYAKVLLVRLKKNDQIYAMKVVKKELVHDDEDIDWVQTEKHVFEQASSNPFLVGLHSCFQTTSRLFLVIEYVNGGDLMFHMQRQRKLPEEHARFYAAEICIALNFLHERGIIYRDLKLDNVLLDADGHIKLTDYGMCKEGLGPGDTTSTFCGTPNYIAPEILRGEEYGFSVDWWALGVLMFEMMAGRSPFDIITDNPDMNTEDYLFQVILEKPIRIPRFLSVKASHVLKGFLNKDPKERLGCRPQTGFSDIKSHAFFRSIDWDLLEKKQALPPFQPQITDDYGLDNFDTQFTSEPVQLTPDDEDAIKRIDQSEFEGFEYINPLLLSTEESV

[3] = molecular target: Serine/threonine-protein kinase TAO1 (Homo sapiens, UniProt Q7L7X3); type: functional
Serine/threonine-protein kinase TAO1, sequence (Q7L7X3 whole entry): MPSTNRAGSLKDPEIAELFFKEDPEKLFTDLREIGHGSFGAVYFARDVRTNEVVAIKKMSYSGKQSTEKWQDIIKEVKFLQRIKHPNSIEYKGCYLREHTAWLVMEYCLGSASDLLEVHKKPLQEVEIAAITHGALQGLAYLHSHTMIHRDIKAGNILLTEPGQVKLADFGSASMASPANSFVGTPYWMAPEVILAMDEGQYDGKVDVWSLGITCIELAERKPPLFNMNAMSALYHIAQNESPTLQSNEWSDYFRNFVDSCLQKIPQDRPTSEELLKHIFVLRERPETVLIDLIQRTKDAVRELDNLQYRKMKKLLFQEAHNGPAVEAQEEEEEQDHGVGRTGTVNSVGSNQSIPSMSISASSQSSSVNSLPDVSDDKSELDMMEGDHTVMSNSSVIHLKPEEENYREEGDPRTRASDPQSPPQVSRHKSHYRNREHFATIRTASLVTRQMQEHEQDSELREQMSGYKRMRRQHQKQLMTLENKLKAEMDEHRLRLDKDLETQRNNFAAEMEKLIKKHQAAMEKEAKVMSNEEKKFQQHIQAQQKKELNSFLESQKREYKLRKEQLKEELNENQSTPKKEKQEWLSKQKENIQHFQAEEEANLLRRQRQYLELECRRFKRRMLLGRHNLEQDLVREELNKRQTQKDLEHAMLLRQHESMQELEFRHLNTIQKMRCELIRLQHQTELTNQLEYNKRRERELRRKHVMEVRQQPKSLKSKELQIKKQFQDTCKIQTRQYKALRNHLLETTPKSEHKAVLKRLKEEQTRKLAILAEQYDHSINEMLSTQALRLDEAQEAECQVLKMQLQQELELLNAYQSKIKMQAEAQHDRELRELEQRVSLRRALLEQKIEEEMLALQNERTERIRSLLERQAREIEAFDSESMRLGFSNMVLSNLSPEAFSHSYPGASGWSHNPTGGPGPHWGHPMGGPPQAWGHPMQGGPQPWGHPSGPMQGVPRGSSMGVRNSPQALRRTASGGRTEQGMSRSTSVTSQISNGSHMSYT

[4] = molecular target: High affinity nerve growth factor receptor (Homo sapiens, UniProt P04629); type: functional;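 further: NTRK1 tested as one member of a kinome-wide profiling panel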
High affinity nerve growth factor receptor, sequence (P04629 whole entry): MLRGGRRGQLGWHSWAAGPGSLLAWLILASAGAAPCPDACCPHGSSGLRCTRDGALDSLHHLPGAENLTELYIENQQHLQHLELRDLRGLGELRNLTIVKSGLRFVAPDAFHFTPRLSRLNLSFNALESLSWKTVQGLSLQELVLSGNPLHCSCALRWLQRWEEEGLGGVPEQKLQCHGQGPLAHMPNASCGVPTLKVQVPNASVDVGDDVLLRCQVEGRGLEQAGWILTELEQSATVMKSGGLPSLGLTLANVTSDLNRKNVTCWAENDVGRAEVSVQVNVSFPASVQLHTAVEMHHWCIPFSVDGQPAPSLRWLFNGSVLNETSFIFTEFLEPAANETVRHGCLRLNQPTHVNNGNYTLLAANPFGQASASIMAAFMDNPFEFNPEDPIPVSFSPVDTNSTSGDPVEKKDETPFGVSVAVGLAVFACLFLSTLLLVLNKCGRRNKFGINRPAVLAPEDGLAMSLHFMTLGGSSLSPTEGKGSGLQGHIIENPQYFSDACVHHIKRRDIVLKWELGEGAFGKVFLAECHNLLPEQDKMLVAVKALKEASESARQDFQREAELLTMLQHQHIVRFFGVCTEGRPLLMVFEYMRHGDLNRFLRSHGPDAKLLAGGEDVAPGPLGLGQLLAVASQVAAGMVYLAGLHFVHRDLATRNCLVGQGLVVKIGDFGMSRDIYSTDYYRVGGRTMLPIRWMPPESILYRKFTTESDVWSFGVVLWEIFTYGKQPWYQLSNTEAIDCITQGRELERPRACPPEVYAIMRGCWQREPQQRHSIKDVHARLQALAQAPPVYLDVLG

[5] = molecular target: Hepatocyte growth factor receptor (Homo sapiens, UniProt P08581); type: functional;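 further: kinase panel profiling across the kinome, with MET as the panel member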
Hepatocyte growth factor receptor, sequence (P08581 whole entry): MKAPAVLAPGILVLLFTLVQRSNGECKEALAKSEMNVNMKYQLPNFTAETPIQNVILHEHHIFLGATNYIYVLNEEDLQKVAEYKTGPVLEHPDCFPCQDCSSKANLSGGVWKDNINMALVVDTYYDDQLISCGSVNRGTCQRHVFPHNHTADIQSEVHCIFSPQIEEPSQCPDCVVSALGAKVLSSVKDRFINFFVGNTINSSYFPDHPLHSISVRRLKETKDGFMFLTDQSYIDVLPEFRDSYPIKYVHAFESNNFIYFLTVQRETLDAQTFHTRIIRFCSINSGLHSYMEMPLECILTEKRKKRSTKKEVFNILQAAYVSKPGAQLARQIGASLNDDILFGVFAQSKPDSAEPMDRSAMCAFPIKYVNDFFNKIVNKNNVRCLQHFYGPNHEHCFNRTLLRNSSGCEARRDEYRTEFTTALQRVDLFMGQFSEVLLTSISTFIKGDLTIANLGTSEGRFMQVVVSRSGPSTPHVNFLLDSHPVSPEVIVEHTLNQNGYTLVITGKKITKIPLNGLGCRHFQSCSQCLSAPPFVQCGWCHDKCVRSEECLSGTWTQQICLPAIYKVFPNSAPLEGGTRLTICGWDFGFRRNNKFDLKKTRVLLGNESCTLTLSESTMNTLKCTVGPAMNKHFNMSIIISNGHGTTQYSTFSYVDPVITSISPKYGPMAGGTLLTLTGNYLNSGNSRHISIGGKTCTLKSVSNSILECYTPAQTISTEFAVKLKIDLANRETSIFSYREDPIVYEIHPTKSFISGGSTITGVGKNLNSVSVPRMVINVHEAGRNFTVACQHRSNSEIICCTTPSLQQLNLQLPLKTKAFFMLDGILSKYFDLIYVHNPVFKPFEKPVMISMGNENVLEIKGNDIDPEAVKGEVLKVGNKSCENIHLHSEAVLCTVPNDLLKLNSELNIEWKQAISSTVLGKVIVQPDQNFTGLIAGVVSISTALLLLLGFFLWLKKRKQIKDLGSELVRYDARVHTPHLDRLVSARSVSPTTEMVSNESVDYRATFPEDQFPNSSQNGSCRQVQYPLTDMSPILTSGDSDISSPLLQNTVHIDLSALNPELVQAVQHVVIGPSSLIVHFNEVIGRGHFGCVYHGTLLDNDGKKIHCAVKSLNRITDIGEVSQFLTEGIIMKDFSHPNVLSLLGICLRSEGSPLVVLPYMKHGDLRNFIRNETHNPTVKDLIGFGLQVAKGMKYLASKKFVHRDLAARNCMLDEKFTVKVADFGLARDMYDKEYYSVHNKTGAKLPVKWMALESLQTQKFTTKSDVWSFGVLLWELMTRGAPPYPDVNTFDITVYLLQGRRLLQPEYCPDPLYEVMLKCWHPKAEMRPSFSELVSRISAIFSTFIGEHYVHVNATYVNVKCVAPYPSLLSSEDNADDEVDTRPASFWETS

[6] = molecular target: Serine/threonine-protein kinase Nek4 (Homo sapiens, UniProt P51957); type: functional
Serine/threonine-protein kinase Nek4, sequence (P51957 whole entry): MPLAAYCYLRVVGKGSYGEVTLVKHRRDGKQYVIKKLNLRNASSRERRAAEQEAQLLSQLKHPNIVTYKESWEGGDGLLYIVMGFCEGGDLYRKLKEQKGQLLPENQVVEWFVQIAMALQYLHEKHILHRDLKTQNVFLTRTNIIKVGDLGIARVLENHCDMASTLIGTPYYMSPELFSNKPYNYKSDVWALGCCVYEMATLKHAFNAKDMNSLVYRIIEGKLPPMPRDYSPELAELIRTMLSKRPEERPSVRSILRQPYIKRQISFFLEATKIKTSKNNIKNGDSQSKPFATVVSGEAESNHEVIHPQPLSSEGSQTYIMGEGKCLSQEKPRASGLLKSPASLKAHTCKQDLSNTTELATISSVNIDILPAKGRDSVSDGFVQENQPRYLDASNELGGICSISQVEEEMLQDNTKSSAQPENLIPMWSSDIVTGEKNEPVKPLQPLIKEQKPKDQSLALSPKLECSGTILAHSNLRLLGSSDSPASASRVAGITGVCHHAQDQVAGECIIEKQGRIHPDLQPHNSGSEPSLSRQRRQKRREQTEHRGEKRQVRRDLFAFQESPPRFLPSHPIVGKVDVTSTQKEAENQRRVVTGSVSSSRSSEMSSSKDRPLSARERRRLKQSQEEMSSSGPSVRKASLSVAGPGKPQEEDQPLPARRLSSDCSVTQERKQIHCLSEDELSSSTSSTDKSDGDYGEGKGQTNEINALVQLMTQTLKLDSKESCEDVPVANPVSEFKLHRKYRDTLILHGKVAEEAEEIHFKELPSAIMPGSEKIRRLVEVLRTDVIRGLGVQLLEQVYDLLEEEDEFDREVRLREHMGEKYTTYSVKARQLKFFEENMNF

[7] = molecular target: cAMP-dependent protein kinase catalytic subunit PRKX (Homo sapiens, UniProt P51817); type: functional
cAMP-dependent protein kinase catalytic subunit PRKX, sequence (P51817 whole entry): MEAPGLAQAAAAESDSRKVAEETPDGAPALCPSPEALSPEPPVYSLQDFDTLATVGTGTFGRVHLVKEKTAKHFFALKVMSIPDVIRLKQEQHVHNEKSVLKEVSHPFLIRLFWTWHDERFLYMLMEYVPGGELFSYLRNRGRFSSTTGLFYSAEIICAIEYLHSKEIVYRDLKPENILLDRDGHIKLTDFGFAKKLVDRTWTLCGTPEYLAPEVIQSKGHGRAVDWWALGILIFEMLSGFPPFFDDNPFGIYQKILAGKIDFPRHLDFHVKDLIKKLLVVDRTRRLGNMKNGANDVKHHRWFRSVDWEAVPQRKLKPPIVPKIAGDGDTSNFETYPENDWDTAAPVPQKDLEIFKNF

[8] = molecular target: Serine/threonine-protein kinase 3 (Homo sapiens, UniProt Q13188); type: functional;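 further: measured as one member of a kinome-wide kinase panel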
Serine/threonine-protein kinase 3, sequence (Q13188 whole entry): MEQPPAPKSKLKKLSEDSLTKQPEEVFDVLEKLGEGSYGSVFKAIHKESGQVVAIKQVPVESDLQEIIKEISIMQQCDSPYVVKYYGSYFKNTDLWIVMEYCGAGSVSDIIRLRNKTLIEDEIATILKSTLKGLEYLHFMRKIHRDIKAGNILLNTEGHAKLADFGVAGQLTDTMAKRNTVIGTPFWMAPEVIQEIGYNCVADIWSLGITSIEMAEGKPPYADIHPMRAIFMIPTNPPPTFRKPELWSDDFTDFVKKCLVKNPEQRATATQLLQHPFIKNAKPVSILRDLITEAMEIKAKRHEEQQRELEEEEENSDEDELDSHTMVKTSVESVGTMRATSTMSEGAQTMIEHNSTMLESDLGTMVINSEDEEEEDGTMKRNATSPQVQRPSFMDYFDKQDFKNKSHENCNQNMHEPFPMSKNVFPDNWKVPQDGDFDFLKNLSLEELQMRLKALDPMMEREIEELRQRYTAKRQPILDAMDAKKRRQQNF

[9] = molecular target: T3, Tyrosine-protein phosphatase non-receptor type 22 (Homo sapiens, UniProt Q9Y2R2); type: functional;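 further: confirmatory dose-response retesting of primary uHTS hits against LYP; potency is for inhibition of phosphatase activity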
T3 sequence (Q9Y2R2 whole entry): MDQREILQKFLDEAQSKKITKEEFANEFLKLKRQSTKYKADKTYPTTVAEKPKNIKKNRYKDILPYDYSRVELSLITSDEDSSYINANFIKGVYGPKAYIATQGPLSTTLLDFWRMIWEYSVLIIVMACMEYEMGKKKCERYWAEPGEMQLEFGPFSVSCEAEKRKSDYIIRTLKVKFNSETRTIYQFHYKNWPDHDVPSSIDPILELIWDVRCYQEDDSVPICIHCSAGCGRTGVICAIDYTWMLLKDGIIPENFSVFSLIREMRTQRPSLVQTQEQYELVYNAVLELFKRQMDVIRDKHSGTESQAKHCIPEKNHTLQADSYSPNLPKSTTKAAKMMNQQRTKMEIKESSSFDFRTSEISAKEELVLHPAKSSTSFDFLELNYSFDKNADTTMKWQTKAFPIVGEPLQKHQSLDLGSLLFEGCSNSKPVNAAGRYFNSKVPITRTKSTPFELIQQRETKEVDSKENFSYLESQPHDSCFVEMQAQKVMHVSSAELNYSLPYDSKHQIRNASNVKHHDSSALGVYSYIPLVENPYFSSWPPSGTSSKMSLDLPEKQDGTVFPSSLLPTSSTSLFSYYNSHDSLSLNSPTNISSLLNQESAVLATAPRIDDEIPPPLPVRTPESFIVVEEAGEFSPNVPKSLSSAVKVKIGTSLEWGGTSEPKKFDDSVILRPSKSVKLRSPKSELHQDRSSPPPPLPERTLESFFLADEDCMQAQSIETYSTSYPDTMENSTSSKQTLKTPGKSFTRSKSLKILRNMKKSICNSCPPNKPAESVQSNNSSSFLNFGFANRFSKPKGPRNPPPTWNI

[10] = HEK293 cell cytotoxicity, dose response, cytotoxicity control, plate reader, cherry-picked samples (AID 743446); type: functional, cell-based

With CC(=O)c1ccc(NC2=C(N3CCOCC3)C(=O)c3ccccc3C2=O)cc1 the IC50 [1] was 28.7 µM (active).
For COc1cc2ncn(-c3cc(OCc4ccccc4C(F)(F)F)c(C(N)=O)s3)c2cc1OC [GW843682X], the Ki [2] was > 7.94 µM (inactive), the Ki [3] was > 10 µM (inactive) and the Ki [4] was 0.398 µM (active). The Ki [5] was > 3.16 µM (inactive), the Ki [6] was > 6.31 µM (inactive) and the Ki [7] was 1 µM (active). The Ki [8] was 0.2 µM (active).
With CCCc1nc2c(=O)n(C)c(=O)nc-2n(C)n1 the IC50 [9] was 1.78 µM (active) and the AC50 [10] was 27.1 µM (active).
